Assay results as given in patent publication US10766898B2, “Therapeutic compound for pain and synthesis thereof” (priority 2015, dated 2020).
Where “and” joins values, the source holds several entries; their conditions need not be identical. Equal entries are not always repeated.

System: heat hypersensitivity of λ-carrageenan-injected right hind paws of mice
Test: λ-carrageenan-induced paw inflammation, heat hypersensitivity on hotplate (57° C.), time until first response
Format: in vivo
Settings: for Response time at 3.5 h, avg: average of n=5 animals; for Response time at 3.5 h, avg / Response time at 3.5 h: 10 mg/kg ip 30 min before 1% λ-carrageenan, hotplate 57° C., 3.5 h after carrageenan; for Response time at 3.5 h: individual animal, 10 mg/kg; for average response time compared with pretreatment baseline response time: n=5 animals, 10 mg/kg ip, 3.5 h after λ-carrageenan
Method: Intra plantar injection of 1% […] may be used to induce local inflammation to the paws of test subject mice. In general, local inflammation is expressed as paw swelling and increased sensitivity to heat stimuli. Therefore, the effect of a test item on changes in heat hypersensitivity can be assessed. Using the protocol set forth, the therapeutic effect of the compounds of Formula XVIII and XXII were evaluated.
Animals were dosed with a test compound at time zero (control where given vehicle only) at 10 mg/kg ip (test item was dissolved in a 20% […] solution). After 30 minutes the animals were slightly anesthetized with isoflurane, and 0.1 ml of a 1% λ-carrageenan suspension in Distilled Water was injected into the plantar side of the right hind paws of the mice. After 3.5 hours after the λ-carrageenan administration, the animals were placed on a hotplate apparatus maintained at 57° C., and the time until the first response was recorded.

Structure (SMILES) | Response time at 3.5 h, avg | Response time at 3.5 h | average response time compared with pretreatment baseline response time
O=C(O[C@H]1[C@@H]2[C@@H]3C[C@@H](C[C@H]1N3Cc1ccc3c(c1)OCO3)CN2C(=O)c1ccc(F)cn1)C1CC1 (relative stereo) [Compound of Formula XVIII, (2R*,3R*,3aS*,6S*,7aS*)-1-(benzo[d][1,3]dioxol-5-ylmethyl)-4-(5-fluoropicolinoyl)octahydro-1H-2,6-methanopyrrolo[3,2-b]pyridin-3-yl cyclopropanecarboxylate] | 14.6 s | 16 sec (2×) and 14 sec and 12 sec and 15 sec | exceeded the pretreatment baseline response time
COCC(=O)N1C[C@@H]2C[C@@H]3C1[C@@H](O)[C@H](C2)N3Cc1cccc(C(N)=O)c1 (relative stereo) [Compound of Formula XXII, 3-(((2S*,3S*,6R*,7aR*)-3-hydroxy-4-(2-methoxyacetyl)octahydro-1H-2,6-methanopyrrolo[3,2-b]pyridin-1-yl)methyl)benzamide] | 12.2 s | 12 sec (2×) and 14 sec and 13 sec and 10 sec | exceeded the pretreatment baseline response time
